Patent US9133199B2, “Pyrimidine derivatives as protein kinase inhibitors” (Cyclacel Limited, priority 2007, dated 2015)

Key:
[1] = biological target: AA (aurora kinase A) (Homo sapiens (Human), UniProt O14965); assay: AA kinase inhibition (Table 1); assay type: biochemical; settings: Table 2; read-out: AurA IC50
[2] = Pharmacokinetics in fasted conscious CD-1 mice (iv and oral); assay type: in vivo; settings: compared to compounds A-G
Experimental: Preliminary investigations of the pharmacokinetics of selected compounds were carried out in fasted conscious CD-1 mice (25-30 g). Compounds were dosed as 1 mg/kg by intravenous administration or 5-10 mg/kg by oral route. Twenty one male mice per administration route (n=3 mice per time point) received dose solution by single bolus injection in the tail vein or by oral gavage. Blood samples were collected by cardiac puncture at 5, 15, 30, 60, 120, 240 and 360 min following iv administration and at 30, 60, 120, 240, 360, 480 and 1440 min following oral administration. Blood samples were collected into tubes containing the anti-coagulant lithium heparin, mixed and placed promptly on crushed ice. Plasma was derived from whole blood by centrifugation, frozen and stored at −80° C. prior to analysis. Plasma concentrations were determined by liquid chromatography-tandem mass spectrometry in electrospray positive mode (ESI LC/MS/MS) using calibration curves prepared in the appropriate matrix. The lower level of quantification (LLOQ) in all cases was ca. 5 ng/mL. Plasma concentration-time data was processed using the computer program WinNonLin version 5.2 from which areas under the plasma concentration-time curve (AUCall) were calculated by non-compartmental analysis using Model 201 (IV-bolus Input) or Model 200 (Extravascular Input).
FIG. 1 plots the area under the curve (AUC) for plasma concentration vs time for each compound tested. The dosing vehicle across these experiments remained constant (intravenous=citrate buffer pH 3, 1 mL/kg; oral=DMA/PEG400/10 mM Tartrate buffer, pH 4 (1:3:6), 5 ml/kg). FIG. 2 represents the same data in the form of oral bioavailability (% F) for each compound.

[3] = tested on: A2780/ADR cells; assay: Cell viability assay (Alamar Blue, 72 hours), MDR line; assay type: cell-based, human; settings: paired parental and MDR tumour cell lines (A2780-A2780/ADR, MES-SA-MES-SA/Dx5)
From the text: In vitro cell viability assays have been used to measure the effect of drug accumulation in paired parental and drug resistant tumour cell lines. The pairs used are the human ovarian carcinoma A2780 line with its MDR counterpart A2780/ADR and the human uterine sarcoma MES-SA line with its MDR counterpart MES-SA/Dx5 [Wesolowska O., et al. (2005) Anticancer Res., 25, 383-389].
Method: Cultivated human tumour cells of the ovarian cell line A2780 and its doxorubicin-resistant pair, A2780/ADR and the uterine cell line MES-SA and its doxorubicin-resistant pair, MES-SA/DX5 were seeded at 3000 cells per well in Nunc 96-well tissue culture plates, 100 μl per well in DMEM media containing 10% foetal calf serum and penicillin/streptomycin. […] The plates were then read at 544/595 nm.
The amount of Alamar Blue reagent reacted represents the metabolic activity of the cells. […] The values were calculated from the average of three individual measurements with blank correction (medium-only control).
The assay was performed on the Biomek FxP, automation platform from Beckman Coulter. The plates were read on the Paradigm plate reader supplied by Beckman Coulter. Asymmetry ratios were calculated as the IC50 value of the compound in the drug resistant cells divided by the IC50 value in the parental cells. […]

AA (aurora kinase A), sequence (O14965 whole entry, species assumed): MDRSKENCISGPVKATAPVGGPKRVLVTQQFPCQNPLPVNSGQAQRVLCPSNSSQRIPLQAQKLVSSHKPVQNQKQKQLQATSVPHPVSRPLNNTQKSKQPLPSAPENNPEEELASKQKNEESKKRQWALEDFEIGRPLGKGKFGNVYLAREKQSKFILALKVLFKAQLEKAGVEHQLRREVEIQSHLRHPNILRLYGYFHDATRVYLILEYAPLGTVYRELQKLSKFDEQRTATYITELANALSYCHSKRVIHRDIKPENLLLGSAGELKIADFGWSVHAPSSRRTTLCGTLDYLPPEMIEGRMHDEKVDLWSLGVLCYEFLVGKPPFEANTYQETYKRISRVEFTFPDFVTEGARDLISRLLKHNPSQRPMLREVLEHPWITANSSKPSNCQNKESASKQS

| IC50 [1] | oral bioavailability (% F) [2] | systemic exposure (AUC of plasma concentration vs time) ([2]; iv 1 mg/kg and oral 5-10 mg/kg) | Structure (SMILES) | cellular efflux (MDR/parental cell asymmetry) [3] |
| --- | --- | --- | --- | --- |
| < 1 µM |  |  | CN1C(=O)CCN(C2CCCC2)c2nc(Nc3cccc4cc[nH]c34)ncc21 [Compound 98, 9-Cyclopentyl-2-(1H-indol-7-ylamino)-5-methyl-5,7,8,9-tetra-hydro-pyrimido[4,5-b] [1,4]diazepin-6-one] |  |
| < 10 µM |  |  | CN1C(=O)CCN2CCC(=O)Nc3cccc(c3)Nc3ncc1c2n3 [Compound 282] |  |
|  | markedly superior | markedly superior | COc1cc(C(=O)N[C@H]2CC[C@H](N3CCN(CC4CC4)CC3)CC2)ccc1Nc1ncc2c(n1)N(C1CCCC1)CC1(CC1)C(=O)N2C [Compound 371, 4-(9′-cyclopentyl-5′-methyl-6′-oxo-5′,6′,8′,9′-tetrahydrospiro[cyclopropane-1,7′-pyrimido[4,5-b][1,4]diazepine]-2′-ylamino)-N-((trans)-4-(4-(cyclopropylmethyl)piperazin-1-yl)cyclohexyl)-3-methoxybenzamide] | low cellular efflux |
